According to patent US8410112B2, “Compounds useful as inhibitors of ATR kinase” (Vertex Pharmaceuticals Incorporated, priority 2008, dated 2013):

Columns and labels:
full-length ATR = molecular target: T1, full-length ATR (Homo sapiens, UniProt Q13535); assay: ATR Inhibition Assay (radioactive-phosphate incorporation); type: biochemical; conditions: Ki(app); 5 nM full-length ATR, 10 μM ATP, 800 μM target peptide, 25° C.
T1 construct: in the presence of 5 nM full-length ATR
Method in brief: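 Buffer was 50 mM Tris/HCl pH 7.5, 10 mM MgCl2, 1 mM DTT, with 5 nM enzyme, 10 μM [γ-33P]ATP and 800 μM target peptide at 25 °C. Compound was pre-incubated 10 min before ATP start, and the reaction was stopped after 24 h. Phosphocellulose filter capture; Ki(app) came from non-linear regression of background-corrected initial rates.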

intracellular ATR = molecular target: T2, intracellular ATR (Homo sapiens, UniProt Q13535); assay: Cellular ATR Inhibition Assay (H2AX phosphorylation, immunofluorescence microscopy); type: cell-based; conditions: HT29 cells, 2 mM hydroxyurea, percentage of phosphorylated H2AX Ser139-positive nuclei
T2 construct: endogenous in cells; host or cells: HT29
Description: Compounds were screened for their ability to inhibit intracellular ATR using an immunofluorescence microscopy assay to detect phosphorylation of the ATR substrate histone H2AX in hydroxyurea treated cells. HT29 cells were plated at 14,000 cells per well in 96-well black imaging plates (BD 353219) in McCoy's 5A media (Sigma M8403) supplemented with 10% foetal bovine serum (JRH Biosciences 12003), Penicillin/Streptomycin solution diluted 1:100 (Sigma P7539), and 2 mM L-glumtamine (Sigma G7513), and allowed to adhere overnight at 37° C. in 5% CO2. Compounds were then added to the cell media from a final concentration of 25 μM in 3-fold serial dilutions and the cells were incubated at 37° C. in 5% CO2. After 15 min, hydroxyurea (Sigma H8627) was added to a final concentration of 2 mM.
After 45 min of treatment with hydroxyurea, the cells were washed in PBS, fixed for 10 min in 4% formaldehyde diluted in PBS (Polysciences Inc 18814), washed in 0.2% Tween-20 in PBS (wash buffer), and permeabilised for 10 min in 0.5% Triton X-100 in PBS, all at room temperature. The cells were then washed once in wash buffer and blocked for 30 min at room temperature in 10% goat serum (Sigma G9023) diluted in wash buffer (block buffer). To detect H2AX phosphorylation levels, the cells were then incubated for 1 h at room temperature in primary antibody (mouse monoclonal anti-phosphorylated histone H2AX Ser139 antibody; Upstate 05-636) diluted 1:250 in block buffer. The cells were then washed five times in wash buffer before incubation for 1 h at room temperature in the dark in a mixture of secondary antibody (goat anti-mouse Alexa Fluor 488 conjugated antibody; Invitrogen A11029) and Hoechst stain (Invitrogen H3570); diluted 1:500 and 1:5000, respectively, in wash buffer. The cells were then washed five times in wash buffer and finally 100 ul PBS was added to each well before imaging.
Cells were imaged for Alexa Fluor 488 and Hoechst intensity using the BD Pathway 855 Bioimager and Attovision software (BD Biosciences, Version 1.6/855) to quantify phosphorylated H2AX Ser139 and DNA staining, respectively. The percentage of phosphorylated H2AX-positive nuclei in a montage of 9 images at 20× magnification was then calculated for each well using BD Image Data Explorer software (BD Biosciences Version 2.2.15). Phosphorylated H2AX-positive nuclei were defined as Hoechst-positive regions of interest containing Alexa Fluor 488 intensity at 1.75-fold the average Alexa Fluor 488 intensity in cells not treated with hydroxyurea. The percentage of H2AX positive nuclei was finally plotted against concentration for each compound and IC50s for intracellular ATR inhibition were determined using Prism software (GraphPad Prism version 3.0cx for Macintosh, GraphPad Software, San Diego Calif., USA).

T2 sequence (Q13535 whole entry): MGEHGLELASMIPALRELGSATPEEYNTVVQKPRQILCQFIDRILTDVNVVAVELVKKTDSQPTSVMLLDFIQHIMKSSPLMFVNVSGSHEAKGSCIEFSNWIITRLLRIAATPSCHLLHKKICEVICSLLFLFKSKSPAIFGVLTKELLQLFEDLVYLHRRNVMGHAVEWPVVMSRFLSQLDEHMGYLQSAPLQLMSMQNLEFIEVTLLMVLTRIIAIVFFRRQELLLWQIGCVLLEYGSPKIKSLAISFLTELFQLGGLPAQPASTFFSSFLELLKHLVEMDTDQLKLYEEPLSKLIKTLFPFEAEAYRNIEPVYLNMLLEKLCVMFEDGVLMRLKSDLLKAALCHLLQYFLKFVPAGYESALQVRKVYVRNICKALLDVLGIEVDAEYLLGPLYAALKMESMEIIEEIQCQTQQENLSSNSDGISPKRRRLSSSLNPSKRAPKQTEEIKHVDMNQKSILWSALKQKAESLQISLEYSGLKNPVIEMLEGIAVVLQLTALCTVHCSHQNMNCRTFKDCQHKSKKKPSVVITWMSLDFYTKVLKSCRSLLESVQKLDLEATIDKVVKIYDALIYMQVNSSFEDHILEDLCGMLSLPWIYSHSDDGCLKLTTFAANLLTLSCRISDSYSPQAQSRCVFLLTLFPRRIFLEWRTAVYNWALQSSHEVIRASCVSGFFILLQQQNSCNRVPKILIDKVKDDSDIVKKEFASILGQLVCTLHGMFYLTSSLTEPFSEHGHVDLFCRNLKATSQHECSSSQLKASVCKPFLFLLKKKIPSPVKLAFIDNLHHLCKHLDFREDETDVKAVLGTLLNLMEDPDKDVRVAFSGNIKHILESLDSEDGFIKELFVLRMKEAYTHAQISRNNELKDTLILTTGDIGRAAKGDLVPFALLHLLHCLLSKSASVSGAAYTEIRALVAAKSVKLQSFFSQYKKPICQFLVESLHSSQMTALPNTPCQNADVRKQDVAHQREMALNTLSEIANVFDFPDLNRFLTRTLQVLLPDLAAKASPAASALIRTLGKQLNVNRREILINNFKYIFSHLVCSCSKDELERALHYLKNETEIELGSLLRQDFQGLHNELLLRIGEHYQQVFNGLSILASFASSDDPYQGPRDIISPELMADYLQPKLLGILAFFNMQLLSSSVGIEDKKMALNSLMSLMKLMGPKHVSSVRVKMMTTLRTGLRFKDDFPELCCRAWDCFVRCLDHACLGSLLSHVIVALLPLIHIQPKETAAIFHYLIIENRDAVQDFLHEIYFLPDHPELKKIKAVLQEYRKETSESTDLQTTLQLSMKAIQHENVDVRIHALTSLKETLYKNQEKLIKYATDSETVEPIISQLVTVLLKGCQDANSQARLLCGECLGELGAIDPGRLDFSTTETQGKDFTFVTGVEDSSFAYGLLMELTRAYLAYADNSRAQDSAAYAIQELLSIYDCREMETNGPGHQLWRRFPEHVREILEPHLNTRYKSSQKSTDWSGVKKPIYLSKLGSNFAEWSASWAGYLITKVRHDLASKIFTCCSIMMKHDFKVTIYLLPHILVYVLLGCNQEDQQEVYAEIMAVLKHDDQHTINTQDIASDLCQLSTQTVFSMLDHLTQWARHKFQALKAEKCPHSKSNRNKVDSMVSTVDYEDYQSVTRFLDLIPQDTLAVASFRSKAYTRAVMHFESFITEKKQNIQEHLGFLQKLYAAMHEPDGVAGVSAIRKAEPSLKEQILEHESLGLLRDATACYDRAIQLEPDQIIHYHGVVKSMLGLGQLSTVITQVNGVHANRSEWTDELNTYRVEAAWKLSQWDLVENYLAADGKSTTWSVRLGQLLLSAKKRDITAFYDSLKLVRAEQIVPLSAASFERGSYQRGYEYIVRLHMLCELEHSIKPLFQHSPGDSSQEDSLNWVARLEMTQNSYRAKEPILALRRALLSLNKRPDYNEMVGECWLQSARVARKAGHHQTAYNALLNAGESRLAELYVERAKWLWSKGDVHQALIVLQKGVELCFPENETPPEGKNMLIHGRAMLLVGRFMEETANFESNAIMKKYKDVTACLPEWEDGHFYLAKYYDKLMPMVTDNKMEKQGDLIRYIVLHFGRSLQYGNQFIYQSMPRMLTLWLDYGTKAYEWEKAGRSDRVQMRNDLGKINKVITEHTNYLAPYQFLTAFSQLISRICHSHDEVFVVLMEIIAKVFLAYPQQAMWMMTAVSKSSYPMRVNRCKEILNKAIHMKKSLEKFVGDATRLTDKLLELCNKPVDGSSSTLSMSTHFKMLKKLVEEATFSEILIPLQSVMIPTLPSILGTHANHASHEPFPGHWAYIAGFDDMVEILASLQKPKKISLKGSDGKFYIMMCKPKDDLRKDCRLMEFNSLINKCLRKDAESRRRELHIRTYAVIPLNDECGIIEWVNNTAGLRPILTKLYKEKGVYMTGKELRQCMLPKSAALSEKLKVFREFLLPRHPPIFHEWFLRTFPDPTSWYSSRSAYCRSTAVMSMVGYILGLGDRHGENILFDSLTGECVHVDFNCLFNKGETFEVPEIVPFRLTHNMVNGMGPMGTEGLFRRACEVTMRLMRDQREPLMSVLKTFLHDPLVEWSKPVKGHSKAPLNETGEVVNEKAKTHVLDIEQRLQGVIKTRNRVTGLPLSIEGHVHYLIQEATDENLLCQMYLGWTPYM
T2 sequence (Q8WXE1 whole entry partner): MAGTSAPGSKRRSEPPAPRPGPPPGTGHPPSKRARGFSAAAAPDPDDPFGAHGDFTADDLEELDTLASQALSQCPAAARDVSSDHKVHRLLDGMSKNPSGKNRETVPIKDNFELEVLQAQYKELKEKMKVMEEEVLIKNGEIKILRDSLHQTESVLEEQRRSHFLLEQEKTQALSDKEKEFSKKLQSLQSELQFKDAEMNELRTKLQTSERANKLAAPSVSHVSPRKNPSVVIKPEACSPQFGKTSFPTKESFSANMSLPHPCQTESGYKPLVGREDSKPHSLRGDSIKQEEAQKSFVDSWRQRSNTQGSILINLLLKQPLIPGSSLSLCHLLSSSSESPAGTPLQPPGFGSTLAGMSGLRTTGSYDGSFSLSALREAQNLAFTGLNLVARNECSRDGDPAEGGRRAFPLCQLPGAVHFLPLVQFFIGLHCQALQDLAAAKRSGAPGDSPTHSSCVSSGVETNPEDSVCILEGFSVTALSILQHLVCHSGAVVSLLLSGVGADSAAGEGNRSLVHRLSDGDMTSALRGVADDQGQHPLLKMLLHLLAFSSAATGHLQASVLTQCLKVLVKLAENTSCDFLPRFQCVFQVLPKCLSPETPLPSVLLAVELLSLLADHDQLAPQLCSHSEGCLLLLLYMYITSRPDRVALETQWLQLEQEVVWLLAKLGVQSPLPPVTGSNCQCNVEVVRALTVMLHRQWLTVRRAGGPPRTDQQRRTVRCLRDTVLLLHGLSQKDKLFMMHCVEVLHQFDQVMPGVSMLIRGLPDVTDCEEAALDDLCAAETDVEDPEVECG
T1 sequence (Q13535 whole entry): as the sequence (Q13535 whole entry) above

Row | Ki (full-length ATR) [nM] | IC50 (intracellular ATR) [nM] | SMILES
1 | < 100 | < 1000 | CCS(=O)(=O)N1CC=C(c2cnc(N)c(-c3nc4cccnc4[nH]3)n2)CC1 [Compound I-27, 5-(1-(ethylsulfonyl)-1,2,3,6-tetrahydropyridin-4-yl)-3-(3H-imidazo[4,5-b]pyridin-2-yl)pyrazin-2-amine]
2 | 100 to 1000 | 10000 to 30000 | CCS(=O)(=O)N1CCN(c2cnc(N)c(-c3nc4ccccc4[nH]3)n2)CC1 [Compound I-16, 3-(1H-benzo[d]imidazol-2-yl)-5-(4-(ethylsulfonyl)piperazin-1-yl)pyrazin-2-amine]
3 | < 100 | 1000 to 5000 | Cc1ccc2nc(-c3nc(-n4ccc(=O)cc4)cnc3N)[nH]c2c1 [Compound I-24, 1-(5-amino-6-(6-methyl-1H-benzo[d]imidazol-2-yl)pyrazin-2-yl)pyridin-4(1H)-one]
